Measured values reported in patent US20240245682A1, “ALPHA-V-BETA-8 INTEGRIN INHIBITORS AND USES THEREOF” (Pliant Therapeutics, Inc., priority 2022, published 2024).

Key:
Assay in all cases: AlphaScreen proximity-based integrin binding assay with TGF-b1 LAP
Conditions in all cases: values given as ranges
[1] = target: human integrin αVβ1 (Homo sapiens, UniProt P05556+P06756)
Description: (§1) The biochemical potency of the disclosed compounds was determined using the AlphaScreen® (Perkin Elmer, Waltham, MA) proximity-based assay as described previously (Ullman E F et al., Luminescent oxygen channeling immunoassay: Measurement of particle binding kinetics by chemiluminescence. Proc. Natl. Acad. Sci. USA, Vol. 91, pp. 5426-5430, June 1994, herein incorporated by reference in its entirety). To gauge the potency of inhibitors of binding to each of human integrins αVβ1, αVβ6, and αVβ8, inhibitor compounds were independently incubated with one of αVβ1, αVβ6, or αVβ8, together with TGF-b1 LAP and biotinylated anti-LAP antibody plus acceptor and donor beads, following the manufacture's recommendations. The donor beads were coated with streptavidin. […] All incubations occurred at room temperatures in 50 mM Tris-HCl, pH 7.5, 0.1% BSA supplemented with 1 mM each CaCl2 and MgCl2.
(§2) The order of reagent addition was as follows:
(§3) 1. αVβ1, αVβ6, or αVβ8 integrin, test inhibitor compound, LAP, biotinylated anti-LAP antibody and acceptor beads were all added together.
(§4) 2. After 2 hours, donor beads were added. After another 30 minute incubation, samples were then read.
(§5) Integrin binding was evaluated by exciting donor beads at 680 nm, and measuring the fluorescent signal produced, between 520-620 nm, using a Biotek Instruments (Winooski, VT, USA) SynergyNeo2 multimode plate reader. Compound potency was assessed by determining inhibitor concentrations required to reduce fluorescent light output by 50%. Data analysis for IC50 determinations was carried out by nonlinear four parameter logistic regression analysis using Dotmatics ELN Software (Core Informatics Inc., Branford, Ct). […] Comp #in the Table and Examples below refers to the compound of the corresponding Example number as described in the Synthetic Examples.

[2] = target: human integrin αVβ6 (Homo sapiens, UniProt P06756+P18564)
Description: as §1, §2, §3, §4, §5

[3] = target: human integrin αVβ8 (Homo sapiens, UniProt P06756+P26012)
Description: as §1, §2, §3, §4, §5

Chain of human integrin αVβ1 (P06756 31-992 limits assumed): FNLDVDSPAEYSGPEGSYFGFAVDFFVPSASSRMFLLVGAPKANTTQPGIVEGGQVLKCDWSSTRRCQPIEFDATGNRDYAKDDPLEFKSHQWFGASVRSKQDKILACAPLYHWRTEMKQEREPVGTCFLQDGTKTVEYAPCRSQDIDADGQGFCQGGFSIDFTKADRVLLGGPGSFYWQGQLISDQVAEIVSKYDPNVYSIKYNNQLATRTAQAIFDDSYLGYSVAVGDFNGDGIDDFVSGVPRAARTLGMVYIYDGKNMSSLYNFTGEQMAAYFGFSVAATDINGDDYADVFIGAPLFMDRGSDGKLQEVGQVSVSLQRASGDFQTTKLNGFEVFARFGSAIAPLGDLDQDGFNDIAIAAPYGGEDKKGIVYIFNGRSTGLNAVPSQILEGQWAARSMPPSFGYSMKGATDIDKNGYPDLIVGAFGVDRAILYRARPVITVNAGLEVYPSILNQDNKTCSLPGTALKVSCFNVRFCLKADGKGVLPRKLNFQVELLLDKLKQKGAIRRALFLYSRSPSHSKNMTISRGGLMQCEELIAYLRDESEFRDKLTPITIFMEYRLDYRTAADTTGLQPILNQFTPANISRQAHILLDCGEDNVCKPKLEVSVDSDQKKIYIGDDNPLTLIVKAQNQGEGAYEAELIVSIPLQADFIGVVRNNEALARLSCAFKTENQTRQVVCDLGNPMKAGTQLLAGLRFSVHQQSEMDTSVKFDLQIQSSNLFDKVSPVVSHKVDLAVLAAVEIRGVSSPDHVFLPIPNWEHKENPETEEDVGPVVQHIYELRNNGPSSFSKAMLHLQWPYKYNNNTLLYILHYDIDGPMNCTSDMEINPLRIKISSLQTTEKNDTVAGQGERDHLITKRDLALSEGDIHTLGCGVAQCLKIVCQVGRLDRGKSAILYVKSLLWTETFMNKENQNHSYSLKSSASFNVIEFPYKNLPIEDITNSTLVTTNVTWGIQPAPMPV
Chain of human integrin αVβ1 (P05556 21-728 limits assumed): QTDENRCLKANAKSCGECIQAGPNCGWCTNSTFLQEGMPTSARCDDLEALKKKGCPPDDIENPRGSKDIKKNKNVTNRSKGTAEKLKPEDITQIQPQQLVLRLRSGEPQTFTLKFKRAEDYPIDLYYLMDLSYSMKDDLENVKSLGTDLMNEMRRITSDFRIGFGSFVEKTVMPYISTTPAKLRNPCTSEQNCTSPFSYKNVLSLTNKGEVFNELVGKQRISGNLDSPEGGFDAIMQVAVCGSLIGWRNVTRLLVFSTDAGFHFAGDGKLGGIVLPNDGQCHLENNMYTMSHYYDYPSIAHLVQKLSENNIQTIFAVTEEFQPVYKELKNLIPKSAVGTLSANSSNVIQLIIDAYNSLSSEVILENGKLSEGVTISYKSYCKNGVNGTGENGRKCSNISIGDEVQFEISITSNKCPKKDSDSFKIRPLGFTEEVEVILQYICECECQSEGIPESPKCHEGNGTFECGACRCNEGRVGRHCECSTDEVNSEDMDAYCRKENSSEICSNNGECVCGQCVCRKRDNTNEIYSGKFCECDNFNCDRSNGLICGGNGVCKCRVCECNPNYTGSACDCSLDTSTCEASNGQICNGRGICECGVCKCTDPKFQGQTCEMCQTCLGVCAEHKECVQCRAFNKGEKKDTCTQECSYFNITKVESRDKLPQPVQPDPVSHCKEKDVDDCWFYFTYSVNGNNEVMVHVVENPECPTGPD
Chain of human integrin αVβ8 (P06756 31-992 limits assumed): as the sequence (P06756 31-992 limits assumed) above
Chain of human integrin αVβ8 (P26012 43-684 limits assumed): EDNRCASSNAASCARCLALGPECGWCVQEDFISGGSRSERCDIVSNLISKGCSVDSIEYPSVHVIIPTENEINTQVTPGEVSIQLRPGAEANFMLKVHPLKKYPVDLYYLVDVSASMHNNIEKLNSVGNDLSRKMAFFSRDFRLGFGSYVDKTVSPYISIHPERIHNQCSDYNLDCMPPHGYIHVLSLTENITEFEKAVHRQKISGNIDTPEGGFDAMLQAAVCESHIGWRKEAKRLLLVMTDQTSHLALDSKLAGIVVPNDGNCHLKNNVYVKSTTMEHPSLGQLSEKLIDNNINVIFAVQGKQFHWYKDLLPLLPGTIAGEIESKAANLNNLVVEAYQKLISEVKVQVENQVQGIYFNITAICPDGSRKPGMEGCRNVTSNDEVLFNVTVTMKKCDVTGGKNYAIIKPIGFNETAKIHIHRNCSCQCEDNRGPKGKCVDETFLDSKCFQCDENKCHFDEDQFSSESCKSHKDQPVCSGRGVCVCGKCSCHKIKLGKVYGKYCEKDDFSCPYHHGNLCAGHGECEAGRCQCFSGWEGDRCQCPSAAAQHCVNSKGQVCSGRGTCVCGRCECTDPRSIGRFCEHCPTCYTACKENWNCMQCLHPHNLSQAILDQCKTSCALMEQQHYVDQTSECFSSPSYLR
Chain of human integrin αVβ6 (P06756 31-992 limits assumed): as the sequence (P06756 31-992 limits assumed) above
Chain of human integrin αVβ6 (P18564 22-707 limits assumed): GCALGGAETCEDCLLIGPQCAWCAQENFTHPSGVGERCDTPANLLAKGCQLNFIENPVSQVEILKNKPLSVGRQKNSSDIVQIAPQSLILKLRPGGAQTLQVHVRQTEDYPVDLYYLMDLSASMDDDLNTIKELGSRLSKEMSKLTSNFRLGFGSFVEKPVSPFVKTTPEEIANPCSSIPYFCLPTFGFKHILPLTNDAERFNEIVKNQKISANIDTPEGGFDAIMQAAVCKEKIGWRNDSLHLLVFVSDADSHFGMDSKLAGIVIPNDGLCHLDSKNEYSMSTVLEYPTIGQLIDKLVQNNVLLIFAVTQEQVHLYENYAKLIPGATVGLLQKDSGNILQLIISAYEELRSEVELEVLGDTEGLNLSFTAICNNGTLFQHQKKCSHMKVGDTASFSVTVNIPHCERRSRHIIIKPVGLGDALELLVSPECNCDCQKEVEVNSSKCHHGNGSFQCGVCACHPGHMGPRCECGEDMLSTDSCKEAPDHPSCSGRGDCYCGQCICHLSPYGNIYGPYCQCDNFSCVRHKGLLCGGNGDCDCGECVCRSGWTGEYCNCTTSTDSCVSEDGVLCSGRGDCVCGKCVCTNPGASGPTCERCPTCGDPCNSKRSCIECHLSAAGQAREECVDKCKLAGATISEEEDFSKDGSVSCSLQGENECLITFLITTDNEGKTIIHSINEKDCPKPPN

Compound	IC50 [1] [nM]	IC50 [2] [nM]	IC50 [3] [nM]
N#Cc1cccnc1C1(C(=O)N[C@@H](CCOCCCCc2ccc3c(n2)NCCC3)C(=O)O)CC1 [Compound 32, N-(1-(3-cyanopyridin-2-yl)cyclopropane-1-carbonyl)-O-(4-(5,6,7,8-tetrahydro-1,8-naphthyridin-2-yl)butyl)-L-homoserine]	< 50	≥ 500	< 50
O=C(O)[C@H](CCOCCCCc1ccc2c(n1)NCCC2)NC(=O)C1(n2ccnc2C(F)(F)F)CC1 [Compound 70, O-(4-(5,6,7,8-tetrahydro-1,8-naphthyridin-2-yl)butyl)-N-(1-(2-(trifluoromethyl)-1H-imidazol-1-yl)cyclopropane-1-carbonyl)-L-homoserine]	< 50	≥ 500	< 50
COc1ccc(F)c(F)c1C(C)(C)C(=O)N[C@@H](CCOCCCCc1ccc2c(n1)NCCC2)C(=O)O [Compound 4, N-(2-(2,3-difluoro-6-methoxyphenyl)-2-methylpropanoyl)-O-(4-(5,6,7,8-tetrahydro-1,8-naphthyridin-2-yl)butyl)-L-homoserine]	50 to 150	≥ 500	150 to 250
N#Cc1cccc(F)c1C1(C(=O)N[C@@H](CCOCCCCc2ccc3c(n2)NCCC3)C(=O)O)CC1 [Compound 37, N-(1-(2-cyano-6-fluorophenyl)cyclopropane-1-carbonyl)-O-(4-(5,6,7,8-tetrahydro-1,8-naphthyridin-2-yl)butyl)-L-homoserine]	< 50	250 to 500	< 50
CC(C)(C(=O)NC(CCOCCCCc1ccc2c(n1)NCCC2)C(=O)O)c1ccccc1 (stereo not drawn) [Compound 1, N-(2-methyl-2-phenylpropanoyl)-O-(4-(5,6,7,8-tetrahydro-1,8-naphthyridin-2-yl)butyl)homoserine]	< 50	≥ 500	50 to 150
O=C(O)[C@H](CCOCCCCc1ccc2c(n1)NCCC2)NC(=O)C1(n2c(C3CC3)cccc2=O)CC1 [Compound 91, N-(1-(6-cyclopropyl-2-oxopyridin-1(2H)-yl)cyclopropane-1-carbonyl)-O-(4-(5,6,7,8-tetrahydro-1,8-naphthyridin-2-yl)butyl)-L-homoserine]	< 50	> 500	50 to 150
COc1cccc(C2(C(=O)N[C@@H](CCOCCCCc3ccc4c(n3)NCCC4)C(=O)O)CCOCC2)c1 [Compound 87, N-(4-(3-methoxyphenyl)tetrahydro-2H-pyran-4-carbonyl)-O-(4-(5,6,7,8-tetrahydro-1,8-naphthyridin-2-yl)butyl)-L-homoserine]	< 50	> 500	< 50
O=C(O)[C@H](CCOCCCCc1ccc2c(n1)NCCC2)NC(=O)C1(c2cncnc2C(F)F)CC1 [Compound 59, N-(1-(4-(difluoromethyl)pyrimidin-5-yl)cyclopropane-1-carbonyl)-O-(4-(5,6,7,8-tetrahydro-1,8-naphthyridin-2-yl)butyl)-L-homoserine]	< 50	≥ 500	< 50
O=C(O)[C@H](CCOCCCCc1ccc2c(n1)NCCC2)NC(=O)C1(c2cccc(C(F)(F)F)c2)CCOCC1 [Compound 86, O-(4-(5,6,7,8-tetrahydro-1,8-naphthyridin-2-yl)butyl)-N-(4-(3-(trifluoromethyl)phenyl)tetrahydro-2H-pyran-4-carbonyl)-L-homoserine]	< 50	> 500	< 50
O=C(O)[C@H](CCOCCCCc1ccc2c(n1)NCCC2)NC(=O)C1(n2cncc2C(F)F)CC1 [Compound 64, N-(1-(5-(difluoromethyl)-1H-imidazol-1-yl)cyclopropane-1-carbonyl)-O-(4-(5,6,7,8-tetrahydro-1,8-naphthyridin-2-yl)butyl)-L-homoserine]	< 50	≥ 500	50 to 150
O=C(N[C@@H](CCOCCCCc1ccc2c(n1)NCCC2)C(=O)O)c1cnn(-c2ccccc2)c1 [Compound 98, N-(1-phenyl-1H-pyrazole-4-carbonyl)-O-(4-(5,6,7,8-tetrahydro-1,8-naphthyridin-2-yl)butyl)-L-homoserine]	50 to 150	> 500	250 to 500
N#Cc1c[nH]nc1C1(C(=O)N[C@@H](CCOCCCCc2ccc3c(n2)NCCC3)C(=O)O)CC1 [Compound 78, N-(1-(4-cyano-1H-pyrazol-3-yl)cyclopropane-1-carbonyl)-O-(4-(5,6,7,8-tetrahydro-1,8-naphthyridin-2-yl)butyl)-L-homoserine]	< 50	≥ 500	< 50

Further lines, results first:

IC50 [1] [nM]	IC50 [2] [nM]	IC50 [3] [nM]	Compound
< 50	≥ 500	150 to 250	N#Cc1cncc(C2(C(=O)N[C@@H](CCOCCCCc3ccc4c(n3)NCCC4)C(=O)O)CC2)c1 [Compound 27, N-(1-(5-cyanopyridin-3-yl)cyclopropane-1-carbonyl)-O-(4-(5,6,7,8-tetrahydro-1,8-naphthyridin-2-yl)butyl)-L-homoserine]
< 50	≥ 500	< 50	O=C(O)[C@H](CCOCCCCc1ccc2c(n1)NCCC2)NC(=O)C1(c2[nH]ncc2Cl)CC1 [Compound 71, N-(1-(4-chloro-1H-pyrazol-5-yl)cyclopropane-1-carbonyl)-O-(4-(5,6,7,8-tetrahydro-1,8-naphthyridin-2-yl)butyl)-L-homoserine]
< 50	≥ 500	50 to 150	COc1nccc(Cl)c1C1(C(=O)N[C@@H](CCOCCCCc2ccc3c(n2)NCCC3)C(=O)O)CC1 [Compound 44, N-(1-(4-chloro-2-methoxypyridin-3-yl)cyclopropane-1-carbonyl)-O-(4-(5,6,7,8-tetrahydro-1,8-naphthyridin-2-yl)butyl)-L-homoserine]
< 50	≥ 500	< 50	O=C(O)[C@H](CCOCCCCc1ccc2c(n1)NCCC2)NC(=O)C1(c2ncccc2Cl)CC1 [Compound 15, N-(1-(3-chloropyridin-2-yl)cyclopropane-1-carbonyl)-O-(4-(5,6,7,8-tetrahydro-1,8-naphthyridin-2-yl)butyl)-L-homoserine]
< 50	≥ 500	< 50	O=C(O)[C@H](CCOCCCCc1ccc2c(n1)NCCC2)NC(=O)C1(c2[nH]cnc2Cl)CC1 [Compound 79, N-(1-(4-chloro-1H-imidazol-5-yl)cyclopropane-1-carbonyl)-O-(4-(5,6,7,8-tetrahydro-1,8-naphthyridin-2-yl)butyl)-L-homoserine]
< 50	≥ 500	< 50	Cc1ncc(F)cc1C1(C(=O)N[C@@H](CCOCCCCc2ccc3c(n2)NCCC3)C(=O)O)CC1 [Compound 28, N-(1-(5-fluoro-2-methylpyridin-3-yl)cyclopropane-1-carbonyl)-O-(4-(5,6,7,8-tetrahydro-1,8-naphthyridin-2-yl)butyl)-L-homoserine]
< 50	50 to 150	< 50	O=C(O)[C@H](CCOCCCCc1ccc2c(n1)NCCC2)NC(=O)C1(c2c(Cl)cncc2Cl)CC1 [Compound 24, N-(1-(3,5-dichloropyridin-4-yl)cyclopropane-1-carbonyl)-O-(4-(5,6,7,8-tetrahydro-1,8-naphthyridin-2-yl)butyl)-L-homoserine]
< 50	≥ 500	150 to 250	O=C(O)[C@H](CCOCCCCc1ccc2c(n1)NCCC2)NC(=O)C1(c2cncnc2)CC1 [Compound 22, N-(1-(pyrimidin-5-yl)cyclopropane-1-carbonyl)-O-(4-(5,6,7,8-tetrahydro-1,8-naphthyridin-2-yl)butyl)-L-homoserine]
< 50	≥ 500	< 50	O=C(O)[C@H](CCOCCCCc1ccc2c(n1)NCCC2)NC(=O)C1(c2ccccc2Cl)CC1 [Compound 6, N-(1-(2-chlorophenyl)cyclopropane-1-carbonyl)-O-(4-(5,6,7,8-tetrahydro-1,8-naphthyridin-2-yl)butyl)-L-homoserine]
< 50	≥ 500	< 50	Cn1ncc(Cl)c1C1(C(=O)N[C@@H](CCOCCCCc2ccc3c(n2)NCCC3)C(=O)O)CC1 [Compound 51, N-(1-(4-chloro-1-methyl-1H-pyrazol-5-yl)cyclopropane-1-carbonyl)-O-(4-(5,6,7,8-tetrahydro-1,8-naphthyridin-2-yl)butyl)-L-homoserine]
< 50	250 to 500	< 50	O=C(O)[C@H](CCOCCCCc1ccc2c(n1)NCCC2)NC(=O)C1(n2nc(Cl)cc2Cl)CC1 [Compound 69, N-(1-(3,5-dichloro-1H-pyrazol-1-yl)cyclopropane-1-carbonyl)-O-(4-(5,6,7,8-tetrahydro-1,8-naphthyridin-2-yl)butyl)-L-homoserine]
